4 compounds from patent US20040043380A1, “T cell line and use thereof” (priority 2000, published 2004) can be followed below.

The test system of this assay is HIV-1 BaL strain. Put plainly: Anti-HIV-1 activity: alkaline phosphatase reporter in MOLT-4/CCR5/LTR-SEAP cells infected with HIV-1 BaL strain. Format: cell-based. Conditions: for EC50: read-out: EC50 (activity of inhibiting viral growth by 50%); for EC90: read-out: EC90 (activity of inhibiting viral growth by 90%). How it is done:
The alkaline phosphatase activity was measured by using Great EscAPe SEAP Detection Kit manufactured by Clontech. Fifty microliters of a diluent was added to 15 μl of the culture supernatant and incubated at 65° C. for 30 minutes. The reaction solution was cooled to room temperature, and then 50 μl of the reaction solution was transferred to a white plate, and 50 μl of an assay buffer was added thereto and incubated at room temperature for 5 minutes. Fifty microliters of a luminescence substrate was added thereto, incubated at room temperature for 10 minutes, and measured for chemiluminescence by a luminometer.
A mixture of 2×10^4of MOLT-4/CCR5/LTR-SEAP cells, 1000 CCID50 (cell culture infective dose 50%) of the virus and a test compound (Table 1) at various concentrations was cultured at 37° C. in 5% CO2 gas for 5 days. A quarter of the culture was subcultured for 5 days. On the tenth day after the infection, the culture supernatant was recovered, and the alkaline phosphatase activity was measured. The anti-HIV-1 activity (the inhibition rate) of a test compound was calculated from the following formula:
Inhibition rate (%)=(1−(chemiluminescence^1/chemiluminescence^2))×100
Chemiluminescence^1=chemiluminescence with addition of a test compound (ii)−chemiluminescence without viral infection (iii).
Chemiluminescence^2=chemiluminescence without addition of a test compound (i)−chemiluminescence without viral infection (iii).

[1] abbreviates: Human immunodeficiency virus 1, BAL.
[2] abbreviates: MOLT-4/CCR5/LTR-SEAP cells, 1000 CCID50 HIV-1 BaL strain, alkaline phosphatase activity in culture supernatant on tenth day after infection.

Like-named read-outs stand apart in the source and are kept apart here.

The EC50 is the concentration at which the effect is half-maximal. What is called EC90 is the concentration at which the effect reaches the 90% level. In the case of `Cc1cn([C@H]2C=C[C@@H](CO)O2)c(=O)[nH]c1=O` [Compound 1, 2′,3′-didehydro-3′-deoxythymidine], under setting [1], the EC50 was determined as 16 nM and the EC90 is 260 nM.

Take `Cc1ccnc2c1NC(=O)c1cccnc1N2C1CC1` [Compound 2, 11-cyclopropyl-5,11-dihydro-4-methyl-6H-dipyrido[3,2-b:2′,3′-e] [1,4]diazepin-6-one]: under setting [1], the EC90 was found to be 350 nM. Also, for the setting “Human immunodeficiency virus 1, MOLT-4/CCR5/LTR-SEAP cells, 1000 CCID50 HIV-1 BaL strain, alkaline phosphatase activity in culture supernatant on tenth day after infection”, the EC50 worked out at 40 nM.

Regarding `Cc1c(O)cccc1C(=O)N[C@@H](CSc1ccccc1)[C@H](O)CN1C[C@H]2CCCC[C@H]2C[C@H]1C(=O)NC(C)(C)C` [Compound 3, (-)-(3S,4aS,8aS)-N-tert-butyl-2-[(2R,3R)-2-hydroxy-3-(3-hydroxy-2-methylbenzoylamino)-4-(phenylthio)butyl]decahydroisoquinoline-3-carboxamide monomethanesulfonate], under setting [1], the EC50 was 0.67 nM and the EC90 was found to be 170 nM.

On to `Cc1ccc(-c2ccc3c(c2)C=C(C(=O)Nc2ccc(C[N+](C)(C)C4CCOCC4)cc2)CCC3)cc1` [Compound 4, N,N-dimethyl-N-(4-(((2-(4-methylphenyl)-6,7-dihydro-5H-benzocyclohepten-8-yl)carbonyl)-N-(4-tetrahydropyranyl)ammonium chloride], for which, under setting [2], the EC50 was determined as 21 nM and the 90% effect concentration (EC90) is 680 nM.
